Experimental data published in ChEMBL document CHEMBL4052722, “Virtual screening, synthesis and biological evaluation of DNA intercalating antiviral agents” (Bioorg Med Chem Lett, 2017).

Columns and labels:
Vaccinia virus [1] = assay: Antiviral activity against Vaccinia virus LIVP harboring GFP infected in African green monkey CV1 cells assessed as GFP expression at 10 uM preincubated for 4 hrs with cells followed by viral infection measured after 24 hrs by flow cytometric analysis relative to control; format: functional, Orthopoxvirus vaccinia
Vaccinia virus [2] = assay: (§1) Antiviral activity against Vaccinia virus LIVP harboring GFP infected in African green monkey CV1 cells assessed as virus titer at 10 uM preincubated with cells for 4 hrs followed by viral infection measured after 48 hrs by gentian violet staining-based microscopic analysis (reference value: 3.3 +/- 0.1 log10PFU/ml); format: functional, Orthopoxvirus vaccinia
Vaccinia virus [3] = assay: as §1, with “at 30” for “at 10”; format: functional, Orthopoxvirus vaccinia
Vaccinia virus [4] = assay: as §1, with “at 1” for “at 10”; format: functional, Orthopoxvirus vaccinia
Vaccinia virus [5] = assay: Antiviral activity against Vaccinia virus LIVP harboring GFP infected in African green monkey CV1 cells assessed as virus titer preincubated with cells for 4 hrs followed by viral infection measured after 48 hrs by gentian violet staining-based microscopic analysis; format: functional; details: Orthopoxvirus vaccinia, CV-1
Vaccinia virus [6] = assay: Antiviral activity against Vaccinia virus LIVP harboring GFP infected in African green monkey CV1 cells assessed as inhibition of GFP expression at 30 to 50 uM preincubated for 4 hrs with cells followed by viral infection measured after 24 hrs by flow cytometric analysis relative to control; format: functional, Orthopoxvirus vaccinia
Vaccinia virus [7] = assay: as §1, with “at 5” for “at 10”; format: functional, Orthopoxvirus vaccinia
Vaccinia virus [8] = assay: as §1, with “at 50” for “at 10”; format: functional, Orthopoxvirus vaccinia

Row | SMILES | Activity (Vaccinia virus [1]) [%] | other results
1 | CN1CCN(CCn2c3ccccc3c3nc4ccccc4nc32)CC1 | 91 | 
2 | CN(C)CCn1c2ccccc2c2nc3ccccc3nc21 | 67 | 
3 | CCCCN(C)CCn1c2ccccc2c2nc3ccccc3nc21 | 77 | 
4 | O=C(CN1CCCCCC1)NN1C(=O)c2cccc3cccc(c23)C1=O | 111 | 
5 | CCN(CC)CCNC(=O)Cn1c2ccccc2c2nc3ccccc3nc21 | 67 | 
6 | O=C(Cn1c2ccccc2c2nc3ccccc3nc21)NCCN1CCOCC1 | 125 | 
7 | CN(C)CCCNC(=O)CCCn1c2ccccc2c2nc3ccccc3nc21 | 111 | 
8 | Cc1ccc2c(c1)c1nc3ccccc3nc1n2CCN1CCN(C)CC1 | 111 | 
9 | COC(=O)CN(C)CCCN1C(=O)c2cccc3cccc(c23)C1=O | 83 | 
10 | CCCCN(CCO)CCN1C(=O)c2cccc3cccc(c23)C1=O | 83 | 
11 | CN1CCN(CCN2C(=O)c3cccc4cccc(c34)C2=O)CC1 | 77 | 
12 | O=C(CCCn1c2ccccc2c2nc3ccccc3nc21)NCCN1CCCCC1 | 100 | 
13 | CN1CCN(CC(=O)NN2C(=O)c3cccc4cccc(c34)C2=O)CC1 | 48 | 
14 | CN(C)CCCNCCn1c2ccccc2c2nc3ccccc3nc21 | 45 | Activity (Vaccinia virus [2]): 3.3 log10PFU; Activity (Vaccinia virus [3]): 2.7 log10PFU; Activity (Vaccinia virus [4]): 3.5 log10PFU; IC50 (Vaccinia virus [5]): 22 µM; fold change (FC) (Vaccinia virus [6]): 8 - 10
15 | CCN(CC)CCn1c2ccc(OC)cc2c2nc3ccccc3nc21 | 91 | 
16 | c1ccc2nc3c(nc2c1)c1ccccc1n3CCNCCCN1CCOCC1 | 48 | Activity (Vaccinia virus [2]): 3.3 log10PFU; Activity (Vaccinia virus [3]): 2.6 log10PFU; Activity (Vaccinia virus [4]): 3.6 log10PFU; IC50 (Vaccinia virus [5]): 19 µM; fold change (FC) (Vaccinia virus [6]): 8 - 10
17 | CN(C)CCCOC(=O)Cn1c2ccccc2c2nc3ccccc3nc21 | 83 | 
18 | O=C(CN1CCCC1)NN1C(=O)c2cccc3cccc(c23)C1=O | 111 | 
19 | CC(O)N(C)CCn1c2ccccc2c2nc3ccccc3nc21 (centres undefined) | 91 | 
20 | O=C(Cn1c2ccccc2c2nc3ccccc3nc21)OCCN1CCCCC1 | 71 | 

Row | SMILES | Activity (Vaccinia virus [1]) [%] | other results
21 | CN(C)CCOC(=O)CCCn1c2ccccc2c2nc3ccccc3nc21 | 125 | 
22 | CCN(CC)CCCNC(=O)Cn1c2ccccc2c2nc3ccccc3nc21 | 83 | 
23 | CCN(CC)CCNCCn1c2ccccc2c2nc3ccccc3nc21 | 91 | 
24 | CCN(CC)CCCNCCn1c2ccccc2c2nc3ccccc3nc21 | 28 | Activity (Vaccinia virus [7]): 2.8 log10PFU; Activity (Vaccinia virus [2]): 2.6 log10PFU; Activity (Vaccinia virus [4]): 2.8 log10PFU; IC50 (Vaccinia virus [5]): < 1 µM
25 | O=C(CCCn1c2ccccc2c2nc3ccccc3nc21)NCCCN1CCOCC1 | 111 | 
26 | CN(CCO)CCN1C(=O)c2cccc3cccc(c23)C1=O | 83 | 
27 | CCN(CCO)CCN1C(=O)c2cccc3cccc(c23)C1=O | 71 | 
28 | CN(C)CCNC(=O)Cn1c2ccccc2c2nc3ccccc3nc21 | 59 | 
29 | CN(C)CCNC(=O)CCCn1c2ccccc2c2nc3ccccc3nc21 | 100 | 
30 | CC1CCN(CC(=O)NN2C(=O)c3cccc4cccc(c34)C2=O)CC1 | 125 | 
31 | COc1ccc2c(c1)c1nc3ccccc3nc1n2CCN1CCCCC1 | 23 | Activity (Vaccinia virus [2]): 2.8 log10PFU; Activity (Vaccinia virus [8]): 2.4 log10PFU; Activity (Vaccinia virus [4]): 3.1 log10PFU; IC50 (Vaccinia virus [5]): 5 µM; fold change (FC) (Vaccinia virus [6]): 8 - 10
32 | CN(C)CCCNC(=O)Cn1c2ccccc2c2nc3ccccc3nc21 | 42 | Activity (Vaccinia virus [2]): 2.8 log10PFU; Activity (Vaccinia virus [8]): 2.5 log10PFU; Activity (Vaccinia virus [4]): 3.4 log10PFU; IC50 (Vaccinia virus [5]): 10 µM; fold change (FC) (Vaccinia virus [6]): 8 - 10
33 | CN(C)CCNCCn1c2ccccc2c2nc3ccccc3nc21 | 77 | 
34 | CCN(CC)CCNC(=O)CCCn1c2ccccc2c2nc3ccccc3nc21 | 91 | 
35 | CCN(CC)CCCC(C)N1C(=O)c2cccc3cccc(c23)C1=O (centres undefined) | 111 | 
36 | O=C(CCCn1c2ccccc2c2nc3ccccc3nc21)OCCN1CCOCC1 | 111 | 
37 | O=C(Cn1c2ccccc2c2nc3ccccc3nc21)NCCCN1CCOCC1 | 83 | 
38 | c1ccc2nc3c(nc2c1)c1ccccc1n3CCNCCN1CCCCC1 | 71 | 
39 | O=C(CCCn1c2ccccc2c2nc3ccccc3nc21)NCCN1CCOCC1 | 111 | 
40 | COC(=O)CN1CCN(CCN2C(=O)c3cccc4cccc(c34)C2=O)CC1 | 77 | 
